Test results as given in patent EP4678638A1, “NEW E3 UBIQUITIN LIGASE LIGAND, PROTEIN DEGRADATION AGENT AND USE THEREOF” (priority 2023, dated 2024).

What was measured:
[1] = target: T1, RSK1 (Homo sapiens, UniProt Q15418); assay: Western blot degradation of RSK1 (hPBMC); format: cell-based; conditions: Table D8
T1 construct: evaluate the effects of the compounds of the present disclosure on the expression of target proteins in cells; endogenous in cells; host or cells: hPBMC
In short: (§1)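 After compound exposure, cells were harvested and lysates run on SDS-PAGE, transferred to nitrocellulose and probed with antibodies. Remaining target (%) was computed from band grayscale relative to an internal control protein and normalised; degradation (%) was 100% minus that.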

[2] = target: T2, RSK2 (Homo sapiens, UniProt P51812); assay: Western blot degradation of RSK2 (hPBMC); format: cell-based; conditions: Table D8
T2 construct: evaluate the effects of the compounds of the present disclosure on the expression of target proteins in cells; endogenous in cells; host or cells: hPBMC
T2 sequence (P51812 whole entry): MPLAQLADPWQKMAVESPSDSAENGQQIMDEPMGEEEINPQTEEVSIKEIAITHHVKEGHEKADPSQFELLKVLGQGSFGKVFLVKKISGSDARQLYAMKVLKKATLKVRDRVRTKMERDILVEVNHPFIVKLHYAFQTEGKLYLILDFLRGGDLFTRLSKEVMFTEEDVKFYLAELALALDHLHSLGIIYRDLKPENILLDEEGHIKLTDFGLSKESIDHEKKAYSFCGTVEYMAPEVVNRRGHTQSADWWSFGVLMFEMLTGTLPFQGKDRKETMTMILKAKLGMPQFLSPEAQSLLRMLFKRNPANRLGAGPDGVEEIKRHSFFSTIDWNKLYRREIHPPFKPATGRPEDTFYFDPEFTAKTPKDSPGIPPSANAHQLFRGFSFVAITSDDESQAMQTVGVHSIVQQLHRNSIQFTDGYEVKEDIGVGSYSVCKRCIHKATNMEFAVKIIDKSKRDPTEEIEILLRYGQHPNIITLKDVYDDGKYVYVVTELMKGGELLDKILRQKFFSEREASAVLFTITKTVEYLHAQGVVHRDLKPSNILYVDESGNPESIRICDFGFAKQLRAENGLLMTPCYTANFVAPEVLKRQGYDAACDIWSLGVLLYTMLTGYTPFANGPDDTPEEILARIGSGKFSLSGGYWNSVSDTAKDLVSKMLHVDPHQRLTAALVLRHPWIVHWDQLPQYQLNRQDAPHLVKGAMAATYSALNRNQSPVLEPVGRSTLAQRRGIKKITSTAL
In short: as §1

T1 sequence (Q15418 whole entry): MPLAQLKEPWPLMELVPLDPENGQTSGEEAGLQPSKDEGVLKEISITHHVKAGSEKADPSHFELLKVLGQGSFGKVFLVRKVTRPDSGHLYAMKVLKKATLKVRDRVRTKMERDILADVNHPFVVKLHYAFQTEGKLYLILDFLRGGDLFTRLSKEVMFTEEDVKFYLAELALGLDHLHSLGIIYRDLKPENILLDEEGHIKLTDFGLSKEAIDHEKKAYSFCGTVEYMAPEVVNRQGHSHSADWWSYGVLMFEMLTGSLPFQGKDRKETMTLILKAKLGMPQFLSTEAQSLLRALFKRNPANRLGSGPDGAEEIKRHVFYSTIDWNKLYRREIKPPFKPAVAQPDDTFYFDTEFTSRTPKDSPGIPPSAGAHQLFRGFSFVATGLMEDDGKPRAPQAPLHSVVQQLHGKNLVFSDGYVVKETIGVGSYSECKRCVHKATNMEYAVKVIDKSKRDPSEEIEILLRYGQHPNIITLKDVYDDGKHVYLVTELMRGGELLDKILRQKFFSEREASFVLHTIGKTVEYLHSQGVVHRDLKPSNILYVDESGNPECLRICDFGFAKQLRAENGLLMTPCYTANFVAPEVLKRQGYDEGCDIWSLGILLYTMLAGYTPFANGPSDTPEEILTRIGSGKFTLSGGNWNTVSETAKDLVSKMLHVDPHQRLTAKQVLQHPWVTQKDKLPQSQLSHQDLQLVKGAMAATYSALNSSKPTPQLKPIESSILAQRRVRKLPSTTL

Row | Structure (SMILES) | Degradation of substrate protein RSK1 (substrate protein remaining %) [1] | Degradation of substrate protein RSK2 (substrate protein remaining %) [2]
1 | C[C@@H]1CNC(=O)c2cc3ccc(C(=O)Nc4cnn(Cc5ccc(N6CCC(N(C)Cc7cncc(N8CCC(=O)NC8=O)c7)CC6)cc5)c4)nc3n21 [GT-07945, (R)-N-(1-(4-(4-(((5-(2,4-dioxotetrahydropyrimidin-1(2H)-yl)pyridin-3-yl)methyl)(methyl)amino)piperidin-1-yl)benzyl)-1H-pyrazol-4-yl)-9-methyl-6-oxo-6,7,8,9-tetrahydropyrido[3',2':4,5]py rrolo[1,2-a]pyrazine-2-carboxamide] | A (A is defined as 0% ≤ substrate protein remaining % ≤ 80%) | A (A is defined as 0% ≤ substrate protein remaining % ≤ 80%)
2 | C[C@@H]1CNC(=O)c2cc3ccc(C(=O)Nc4cnn(Cc5ccc(N6CCC(N(C)Cc7ccnc(C8CCC(=O)NC8=O)c7)CC6)cc5)c4)nc3n21 (stereo partly drawn) [GT-07947, (9R)-N-(1-(4-(4-(((2-(2,6-dioxopiperidin-3-yl)pyridin-4-yl)methyl)(methyl)amino)piperidin-1-yl)benzyl)-1H-pyrazol-4-yl)-9-methyl-6-oxo-6,7,8,9-tetrahydropyrido[3',2':4,5]py rrolo[1,2-a]pyrazine-2-carboxamide] | A (A is defined as 0% ≤ substrate protein remaining % ≤ 80%) | A (A is defined as 0% ≤ substrate protein remaining % ≤ 80%)
3 | C[C@@H]1CNC(=O)c2cc3ccc(C(=O)Nc4cnn(Cc5ccc(N6CCC(N(C)Cc7cncc(C8CCC(=O)NC8=O)c7)CC6)cc5)c4)nc3n21 (stereo partly drawn) [GT-07948, (9R)-N-(1-(4-(4-(((5-(2,6-dioxopiperidin-3-yl)pyridin-3-yl)methyl)(methyl)amino)piperidin-1-yl)benzyl)-1H-pyrazol-4-yl)-9-methyl-6-oxo-6,7,8,9-tetrahydropyrido[3',2':4,5]py rrolo[1,2-a]pyrazine-2-carboxamide] | A (A is defined as 0% ≤ substrate protein remaining % ≤ 80%) | A (A is defined as 0% ≤ substrate protein remaining % ≤ 80%)
4 | C[C@@H]1CNC(=O)c2cc3ccc(C(=O)Nc4cnn(Cc5ccc(N6CCC(N(C)Cc7cc(N8CCC(=O)NC8=O)cnc7F)CC6)cc5)c4)nc3n21 [GT-07949, (R)-N-(1-(4-(4-(((5-(2,4-dioxotetrahydropyrimidin-1(2H)-yl)-2-fluoropyridin-3-yl)methyl)(methyl)amino)piperidin-1-yl)benzyl)-1H-pyrazol-4-yl)-9-methyl-6-oxo-6,7,8,9-tetrahydropyrido[3',2':4,5]py rrolo[1,2-a]pyrazine-2-carboxamide] | A (A is defined as 0% ≤ substrate protein remaining % ≤ 80%) | A (A is defined as 0% ≤ substrate protein remaining % ≤ 80%)
5 | C[C@@H]1CNC(=O)c2cc3ccc(C(=O)Nc4cnn(Cc5ccc(N6CCC(N(C)Cc7cnc(N8CCC(=O)NC8=O)cn7)CC6)cc5)c4)nc3n21 [GT-07950, (R)-N-(1-(4-(4-(((5-(2,4-dioxotetrahydropyrimidin-1(2H)-yl)pyrazin-2-yl)methyl)(methyl)amino)piperidin-1-yl)benzyl)-1H-pyrazol-4-yl)-9-methyl-6-oxo-6,7,8,9-tetrahydropyrido[3',2':4,5]py rrolo[1,2-a]pyrazine-2-carboxamide] | A (A is defined as 0% ≤ substrate protein remaining % ≤ 80%) | A (A is defined as 0% ≤ substrate protein remaining % ≤ 80%)
6 | C[C@@H]1CNC(=O)c2cc3ccc(C(=O)Nc4cnn(Cc5ccc(N6CCC(N7CCN(Cc8ccc(C9CCC(=O)NC9=O)cc8)CC7)CC6)cc5)c4)nc3n21 (stereo partly drawn) [GT-07951, (9R)-N-(1-(4-(4-(4-(4-(2,6-dioxopiperidin-3-yl)benzyl)piperazin-1-yl)piperidin-1-yl)benzyl)-1H-pyrazol-4-yl)-9-methyl-6-oxo-6,7,8,9-tetrahydropyrido[3',2':4,5]py rrolo[1,2-a]pyrazine-2-carboxamide] | A (A is defined as 0% ≤ substrate protein remaining % ≤ 80%) | A (A is defined as 0% ≤ substrate protein remaining % ≤ 80%)
7 | C[C@@H]1CNC(=O)c2cc3ccc(C(=O)Nc4cnn(Cc5ccc(N6CCC(N7CCN(Cc8ccc(N9CCC(=O)NC9=O)cc8)CC7)CC6)cc5)c4)nc3n21 [GT-07952, (R)-N-(1-(4-(4-(4-(4-(2,4-dioxotetrahydropyrimidin-1(2H)-yl)benzyl)piperazin-1-yl)piperidin-1-yl)benzyl)-1H-pyrazol-4-yl)-9-methyl-6-oxo-6,7,8,9-tetrahydropyrido[3',2':4,5]pyrrolo[1,2-a]pyrazine-2-carboxamide] | A (A is defined as 0% ≤ substrate protein remaining % ≤ 80%) | A (A is defined as 0% ≤ substrate protein remaining % ≤ 80%)
8 | C[C@@H]1CNC(=O)c2cc3ccc(C(=O)Nc4cnn(Cc5ccc(N6CCC(N7CCN(Cc8ccc(N9CCC(=O)NC9=O)nc8)CC7)CC6)cc5)c4)nc3n21 [GT-07955, (R)-N-(1-(4-(4-(4-((6-(2,4-dioxotetrahydropyrimidin-1(2H)-yl)pyridin-3-yl)methyl)piperazin-1-yl)piperidin-1-yl)benzyl)-1H-pyrazol-4-yl)-9-methyl-6-oxo-6,7,8,9-tetrahydropyrido[3',2':4,5]pyrrolo[1,2-a]pyrazine-2-carboxamide] | A (A is defined as 0% ≤ substrate protein remaining % ≤ 80%) | A (A is defined as 0% ≤ substrate protein remaining % ≤ 80%)
9 | C[C@@H]1CNC(=O)c2cc3ccc(C(=O)Nc4cnn(Cc5ccc(N6CCC(N7CCN(Cc8cccc(NC9CCC(=O)NC9=O)c8)CC7)CC6)cc5)c4)nc3n21 (stereo partly drawn) [GT-07956, (9R)-N-(1-(4-(4-(4-(3-((2,6-dioxopiperidin-3-yl)amino)benzyl)piperazin-1-yl)piperidin-1-yl)benzyl)-1H-pyrazol-4-yl)-9-methyl-6-oxo-6,7,8,9-tetrahydropyrido[3',2':4,5]pyrrolo[1,2-a]pyrazine-2-carboxamide] | A (A is defined as 0% ≤ substrate protein remaining % ≤ 80%) | A (A is defined as 0% ≤ substrate protein remaining % ≤ 80%)
10 | C[C@@H]1CNC(=O)c2cc3ccc(C(=O)Nc4cnn(Cc5ccc(N6CCC(N7CCN(Cc8cc(N9CCC(=O)NC9=O)ncc8F)CC7)CC6)cc5)c4)nc3n21 [GT-07957, (R)-N-(1-(4-(4-(4-((2-(2,4-dioxotetrahydropyrimidin-1(2H)-yl)-5-fluoropyridin-4-yl)methyl)piperazin-1-yl)piperidin-1-yl)benzyl)-1H-pyrazol-4-yl)-9-methyl-6-oxo-6,7,8,9-tetrahydropyrido[3',2':4,5]pyrrolo[1,2-a]pyrazine-2-carboxamide] | A (A is defined as 0% ≤ substrate protein remaining % ≤ 80%) | A (A is defined as 0% ≤ substrate protein remaining % ≤ 80%)
11 | C[C@@H]1CNC(=O)c2cc3ccc(C(=O)Nc4cnn(Cc5ccc(N6CCC(N7CCN(Cc8ccnc(N9CCC(=O)NC9=O)c8)CC7)CC6)cc5)c4)nc3n21 [GT-07958, (R)-N-(1-(4-(4-(4-((2-(2,4-dioxotetrahydropyrimidin-1(2H)-yl)pyridin-4-yl)methyl)piperazin-1-yl)piperidin-1-yl)benzyl)-1H-pyrazol-4-yl)-9-methyl-6-oxo-6,7,8,9-tetrahydropyrido[3',2':4,5]pyrrolo[1,2-a]pyrazine-2-carboxamide] | A (A is defined as 0% ≤ substrate protein remaining % ≤ 80%) | A (A is defined as 0% ≤ substrate protein remaining % ≤ 80%)
12 | C[C@@H]1CNC(=O)c2cc3ccc(C(=O)Nc4cnn(Cc5ccc(N6CCC(N7CCN(Cc8cncc(N9CCC(=O)NC9=O)c8)CC7)CC6)cc5)c4)nc3n21 [GT-07959, (R)-N-(1-(4-(4-(4-((5-(2,4-dioxotetrahydropyrimidin-1(2H)-yl)pyridin-3-yl)methyl)piperazin-1-yl)piperidin-1-yl)benzyl)-1H-pyrazol-4-yl)-9-methyl-6-oxo-6,7,8,9-tetrahydropyrido[3',2':4,5]pyrrolo[1,2-a]pyrazine-2-carboxamide] | A (A is defined as 0% ≤ substrate protein remaining % ≤ 80%) | A (A is defined as 0% ≤ substrate protein remaining % ≤ 80%)
13 | C[C@@H]1CNC(=O)c2cc3ccc(C(=O)Nc4cnn(Cc5ccc(N6CCC(N7CCN(Cc8cnc(N9CCC(=O)NC9=O)cn8)CC7)CC6)cc5)c4)nc3n21 [GT-07963, (R)-N-(1-(4-(4-(4-((5-(2,4-dioxotetrahydropyrimidin-1(2H)-yl)pyrazin-2-yl)methyl)piperazin-1-yl)piperidin-1-yl)benzyl)-1H-pyrazol-4-yl)-9-methyl-6-oxo-6,7,8,9-tetrahydropyrido[3',2':4,5]pyrrolo[1,2-a]pyrazine-2-carboxamide] | A (A is defined as 0% ≤ substrate protein remaining % ≤ 80%) | A (A is defined as 0% ≤ substrate protein remaining % ≤ 80%)
